We go through two compounds from patent US20250179049A1, “SALTS OF HETEROCYCLIC INHIBITORS OF MONOCARBOXYLATE TRANSPORTER 4 FOR THE TREATMENT OF DISEASE” (Vettore, LLC, priority 2022, published 2025).

Series [1] can be described thus: Dog pharmacokinetics, powder in capsule. It is filed as in vivo, beagle dogs. How it is done: Groups, Dosing, and Collection. The pharmacokinetics of the free acid and the tris salt of Compound 1 administered by oral capsules was assessed in dogs. Three male beagle dogs were administered a single dose of 3 mg/kg Compound 1 free acid on Day 1 of the study, and a single dose of 3 mg/kg Compound 1 tris salt on Day 8 of the study. Plasma was collected pre-dose, and at 0.5, 1, 2, 4, 8, 12 and 24 hours post-dose via puncture of peripheral veins.
(§1) LC MS-MS Analysis. Liquid Chromatography with tandem mass spectrometry was used to determine plasma concentrations of Compound 1 Free Acid and Compound 1 Tris Salt in plasma samples collected at prescribed time points. Instrumentation included YMC-Triart C18, S-5 μm (50×2.1 mm) HPLC column, liquid chromatograph Shimadzu LC-30AD with communications bus module CBM-20A and Auto SIL-20AC HT; and a Triple Quad 5500 LC/MS/MS instrument. Tolbutamide was used as an internal standard.

Series [2] is described as follows: Dog pharmacokinetics, oral gavage suspension. It is filed as in vivo, beagle dogs. Conditions: for MRT last / half-life: dog, plasma; for MRT last / half-life / ClF: male beagle dogs, oral suspension, mean. How it is done:
In a follow-up study, the pharmacokinetics of tris salt Compound 1 were investigated via oral gavage of a 0.5% methylcellulose in saline formulation. Two Groups of animals were tested. In Group 1, three male beagle dogs were administered a single dose of 3 mg/kg Compound 1 tris salt. In Group 2, three male beagle dogs were administered a single dose of 30 mg/kg Compound 1 tris salt. Plasma was collected pre-dose, and at 0.5, 1, 2, 4, 8, 12 and 24 hours post-dose via puncture of peripheral veins.
as §1

Series [3] concerns beagle dogs. As to the kind of experiment: in vivo. Conditions: both, dog, 28 days. How it is done:
(§2) Compound 1 was administered to beagle dogs by oral gavage in a range finding study at doses of 30, 79, 240, or 790 mg/kg. […] Compound 1 was administered at doses of 10, 50, and 150 mg/kg/day in the pivotal repeat dose toxicity studies for 28 days.
(§3) Compound 1 tris salt was evaluated for safety in 7- and 28-day studies in rats and dogs. […] The NOAELs for this rat study were 120 mg/kg/day for males and 75 mg/kg/day for females. […] The NOAEL determined in the 28-day dog GLP study was 150 mg/kg/day. These correspond to human equivalent doses (HEDs) of: • Rat: 75 mg/kg×0.16=12 mg/kg • Dog: 150 mg/kg×0.54=81 mg/kg

Series [4] deals with Sprague Dawley rats. As to the kind of experiment: Behavioral safety pharmacology study. It counts as in vivo. Conditions: oral dose of up to 400 mg/kg, male rats (highest dose tested). How it is done: (§4) The safety pharmacology of Compound 1 and its tris salt was evaluated in an in vitro human ether-à-go-go related gene (hERG) assay, a behavioral study in Sprague Dawley rats, and a respiratory and cardiovascular system assessment using electrocardiogram (ECG)-telemetered beagle dogs. […] Determination of the IC50 against the hERG channel was precluded due to potential cytotoxicity at doses >300 μM. […] Cardiovascular safety pharmacology assessments noted decreases in PR interval duration that were detected up to 9 hours post administration of Compound 1 and were usually dose related and associated with potential changes in heart rate. These changes were considered biologically insignificant due to their small magnitude (up to 10 msec compared to vehicle control), association with potential increases in heart rate, and the absence of correlated findings.

For series [5], the system named is Sprague Dawley rats. As to the kind of experiment: 28-day repeat-dose toxicity study in rats. It counts as in vivo. Conditions: male, rat, in vivo, 400 mg/kg/day, 28 days. How it is done: Compound 1 was administered to Sprague Dawley rats by oral gavage at doses of 25, 75, and 250 mg/kg/day (females) and 40, 120, and 400 mg/kg/day (males) for 28 days. Compound 1-related mortality occurred in 8 of the 15 toxicity males administered 400 mg/kg/day beginning on Day 8 through 24. […] Target tissues included bone marrow, spleen, thymus, liver, lymph nodes, epididymides, seminal vesicles, prostate, testes, uterus, and ovaries.
as §3

Series [6] relates to primary human lung fibroblasts. As to the kind of experiment: Fibroblast-to-myofibroblast transition. It counts as cell-based. An excerpt: The reduction of lung fibrosis upon MCT4 inhibition is coupled with changes in serum metabolites that indicates turnover of extracellular matrix protein and increased fatty acid oxidation.
In series [7] the test system is bleomycin-induced lung fibrosis. As to the kind of experiment: Bleomycin-induced lung fibrosis model. It is filed as in vivo, mice. The method, then:
The reduction of lung fibrosis upon MCT4 inhibition is coupled with changes in serum metabolites that indicates turnover of extracellular matrix protein and increased fatty acid oxidation. […] The effects of Compound 1, alone or in combination with approved IPF drugs pirfenidone or nintedanib, were studied in the bleomycin-induced lung fibrosis model in therapeutic mode. Compound 1 was dosed at 3 mg/kg, BID; pirfenidone was dosed at 100 mg/kg, BID; and nintedanib was dosed at 50 mg/kg, QD, all via oral gavage.

In series [8] the test system is beagle dogs. As to the kind of experiment: Respiratory and cardiovascular assessment in ECG-telemetered dogs. It counts as in vivo. How it is done: as §4
Series [9] is described as follows: ADME: intravenous clearance and oral bioavailability. It counts as in vivo. The source says:
The absorption, distribution, metabolism, and excretion properties of Compound 1 have been characterized in both in vitro and in vivo studies. Sensitive and selective bioanalytical methods have been developed and validated for rat and dog plasma. Following intravenous administration, the systemic clearance of Compound 1 in all species evaluated was considered low. Following oral administration, bioavailability was generally greater than 30% in the species evaluated. Initial studies utilized the Compound 1 free form. […] All Good Laboratory Practice (GLP) studies were performed using the Compound 1 tris salt form. Dose levels indicate Compound 1 free form equivalents unless otherwise noted.

For a further series, the target named is hERG channel (Homo sapiens, UniProt Q12809). As to the kind of experiment: in vitro hERG assay. It counts as cell-based. Conditions: determination precluded by potential cytotoxicity at >300 μM; read-out: half maximal inhibitory concentration (IC50) against the hERG channel. The method, then:
as §4
(hERG is a cardiac potassium channel; its block is linked to QT prolongation.)

Series [10] deals with beagle dogs. As to the kind of experiment: Range finding toxicity study in dogs. It counts as in vivo. How it is done: as §2
Where [11] appears, read: male beagle dogs, powder in capsule, 3 mg/kg, mean.
Setting [12] is: male, beagle, dog, plasma, po, 3 mg/kg, male beagle dogs, powder in capsule, mean.

Where a name gives a salt, the structure may show the parent alone. Where only a bound is given, the exact number is not on record here.

Sequence of hERG channel (Q12809 whole entry): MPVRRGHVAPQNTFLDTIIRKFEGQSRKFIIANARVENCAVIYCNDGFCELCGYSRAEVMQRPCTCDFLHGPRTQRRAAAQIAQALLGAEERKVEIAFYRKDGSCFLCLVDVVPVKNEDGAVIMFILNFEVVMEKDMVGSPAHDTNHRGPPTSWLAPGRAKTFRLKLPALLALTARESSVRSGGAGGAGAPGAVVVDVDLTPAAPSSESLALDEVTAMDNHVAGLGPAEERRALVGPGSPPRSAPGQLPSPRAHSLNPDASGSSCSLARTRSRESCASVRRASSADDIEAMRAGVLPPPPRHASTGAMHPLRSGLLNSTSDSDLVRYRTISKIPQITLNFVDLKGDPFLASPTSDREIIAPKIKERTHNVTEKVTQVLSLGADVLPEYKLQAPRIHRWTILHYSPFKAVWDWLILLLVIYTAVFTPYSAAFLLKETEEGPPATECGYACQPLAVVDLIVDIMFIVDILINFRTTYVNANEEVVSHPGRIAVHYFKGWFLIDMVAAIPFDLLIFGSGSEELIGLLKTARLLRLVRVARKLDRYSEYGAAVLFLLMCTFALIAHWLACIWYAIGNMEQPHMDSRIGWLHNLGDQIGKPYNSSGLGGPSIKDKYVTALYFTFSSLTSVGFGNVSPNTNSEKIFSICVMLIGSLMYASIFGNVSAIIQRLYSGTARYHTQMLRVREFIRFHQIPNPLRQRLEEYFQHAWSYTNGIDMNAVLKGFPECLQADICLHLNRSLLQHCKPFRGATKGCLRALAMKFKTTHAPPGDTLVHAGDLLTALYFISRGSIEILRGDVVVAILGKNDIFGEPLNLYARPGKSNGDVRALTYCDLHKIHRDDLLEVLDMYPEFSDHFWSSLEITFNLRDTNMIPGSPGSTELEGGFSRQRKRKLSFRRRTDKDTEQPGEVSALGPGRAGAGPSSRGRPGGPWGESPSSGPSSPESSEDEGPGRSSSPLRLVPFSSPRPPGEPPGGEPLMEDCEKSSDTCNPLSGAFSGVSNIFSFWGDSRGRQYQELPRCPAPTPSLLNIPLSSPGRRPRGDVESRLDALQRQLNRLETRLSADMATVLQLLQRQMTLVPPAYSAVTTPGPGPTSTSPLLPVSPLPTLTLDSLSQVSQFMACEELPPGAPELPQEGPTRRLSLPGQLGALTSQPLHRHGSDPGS

As a reminder, the MRT last is a mean duration of stay, worked out from the concentration-time curve. In general, half-life refers to the time needed for the level to fall by half in the phase considered. A higher half-life goes with slow decline. As for `CC(C)(OCc1cc(-c2cccc(OC3CCC3)c2)n(-c2ccccc2N2CCC2)n1)C(=O)O` [Compound 1 tris salt, tris salt of 2-((1-(2-(azetidin-1-yl)phenyl)-5-(3-cyclobutoxyphenyl)-1H-pyrazol-3-yl)methoxy)-2-methylpropanoic acid], in [1] (dogs), the “Half-life compared to free acid” value is reported as “lower” and the “Mean residence time compared to free acid” value is “increased”. Besides, the “Total drug exposure across time (AUClast and AUCInf) compared to free acid” value in [1] (dogs, powder in capsule and suspension formulations) is “higher”. In series [1] (setting [11]), this compound came in with a ClF of 756, an MRTlast of 7.89 h and a T1/2 of 3.63 h. In series [2] (3 mg/kg), this compound gave a mean residence time (MRT last) of 2.34 h, a half-life of 4.74 h and a ClF of 602. In [2] (30 mg/kg), the MRT last worked out at 3.81 h, the half-life was 3.69 h and the ClF stood at 547. Moreover, the Clinical symptoms entry in series [2] (dogs, single 3 or 30 mg/kg oral gavage dose) is “No abnormal clinical symptoms were observed”. The Adverse effects entry with beagle dogs [3] is listed as “no Compound 1 tris salt-related adverse effects”.

In general, bioavailability refers to dose-corrected exposure relative to a reference, in per cent. Higher therefore signals much systemic uptake. As for `CC(C)(OCc1cc(-c2cccc(OC3CCC3)c2)n(-c2ccccc2N2CCC2)n1)C(=O)O` [Compound 1, 2-((1-(2-(azetidin-1-yl)phenyl)-5-(3-cyclobutoxyphenyl)-1H-pyrazol-3-yl)methoxy)-2-methylpropanoic acid], in the series with Sprague Dawley rats [4], the Behavioral effects result was “no Compound 1-related behavioral effects”. In addition, the Compound-related mortality in the series with Sprague Dawley rats [5] is reported as 8 of the 15. Besides, the Clinical symptoms result in series [1] (dogs, single 3 mg/kg oral capsule dose) is “No abnormal clinical symptoms were observed”. For the same compound, the ClF in series [1] (male beagle dogs, powder in capsule, 3 mg/kg, mean, listed as Free Acid) stood at 2505. In series [1] (setting [12]), this compound showed an MRT last of 5.39 h and a half-life of 6.33 h. In addition, in [6], the Fibroblast-to-myofibroblast transition result is reported as “attenuates the fibroblast-to-myofibroblast transition” and the “Production of alpha-smooth muscle actin (αSMA)” value is on record as “reducing the production”. In addition, in series [7] (aged (>60 week) mice), the Lung fibrosis result is on record as “reduced lung fibrosis” and the Lung lactate levels result was “reduction in lung lactate levels”. Also, in series [7] (bleomycin-induced mouse model of IPF), the Lung fibrosis entry is “reduces lung fibrosis”. Also, the Minimal efficacious dose in [7] (twice daily (BID), bleomycin-induced mouse model of IPF) is recorded as 3 mg/kg. The “Time post administration at which decreases in PR interval duration were detected” value in the series on beagle dogs [8] (dogs) is on record as “up to 9 hours”. Moreover, in the series with beagle dogs [8] (dogs, compared to vehicle control), the “Decrease in PR interval duration, magnitude” value was “up to 10 msec”. Moreover, the Respiratory effects entry with beagle dogs [8] (oral dose of up to 150 mg/kg, dogs (highest dose tested)) is “no significant respiratory effects”. For the same compound, in series [9] (intravenous administration, all species evaluated), the Systemic clearance entry was “low”. Further, the bioavailability in series [9] (plasma, oral administration, species evaluated) is > 30%. The IC50 at hERG channel is > 300 µM. Moreover, the “Dose at which decreased thymus weights were observed” value with beagle dogs [10] (dogs) is ≥ 240 mg/kg. Also, in the series with beagle dogs [10] (dogs, oral gavage 30, 79, 240, or 790 mg/kg, all dose levels), the Clinical observations result was “Watery feces and emesis were occasionally observed”. Further, in the series on beagle dogs [10] (male dogs, 790 mg/kg), the Electrolyte changes result was “increased potassium and decreased sodium and chloride”.
